Reference: the NIST ThermoML archive (doi:10.1021/je900428g)
Where “and” joins values, the source holds several entries; their conditions need not be identical. Equal entries are not always repeated.

Details: Fluid (supercritical or subcritical phases), Spherical resonator

[Ar] [argon]
Details	speed of sound
300 K, 183.8 kPa	322.74 m/s
300 K, 308.3 kPa	322.84 m/s
300 K, 1180.9 kPa	323.61 m/s
300 K, 2331.5 kPa	324.81 m/s
300 K, 4657.3 kPa	327.88 m/s
300 K, 5832.9 kPa	329.8 m/s
300 K, 6595.8 kPa	331.21 m/s
300.11 K, 100.3 kPa	322.73 m/s
300.11 K, 244.7 kPa	322.85 m/s
300.11 K, 395.4 kPa	322.98 m/s
300.11 K, 528 kPa	323.11 m/s
300.11 K, 558.1 kPa	323.12 m/s
300.11 K, 701.6 kPa	323.24 m/s
300.11 K, 739.1 kPa	323.3 m/s
300.11 K, 868 kPa	323.39 m/s
300.11 K, 963 kPa	323.5 m/s
300.11 K, 1011.7 kPa	323.53 m/s
300.11 K, 1166.1 kPa	323.69 m/s
300.11 K, 1618 kPa	324.14 m/s
300.11 K, 1836.4 kPa	324.37 m/s
300.12 K, 48.1 kPa	322.69 m/s
300.12 K, 193 kPa	322.81 m/s
300.12 K, 308.1 kPa	322.91 m/s
300.12 K, 445.5 kPa	323.02 m/s and 323.03 m/s
300.12 K, 729.9 kPa	323.27 m/s and 323.28 m/s
300.12 K, 868.1 kPa	323.39 m/s
300.12 K, 868.2 kPa	323.4 m/s and 323.41 m/s
300.12 K, 1378.6 kPa	323.87 m/s and 323.89 m/s
310 K, 104.7 kPa	328.02 m/s
310 K, 198.6 kPa	328.11 m/s
310 K, 329.2 kPa	328.23 m/s
310 K, 463.4 kPa	328.35 m/s
310 K, 2330.1 kPa	330.38 m/s
310 K, 4624.6 kPa	333.59 m/s
310 K, 6595.8 kPa	337.02 m/s
320 K, 102 kPa	333.28 m/s
320 K, 180.5 kPa	333.35 m/s
320 K, 311 kPa	333.48 m/s
320 K, 450.5 kPa	333.63 m/s
320 K, 576.4 kPa	333.77 m/s and 333.79 m/s
320 K, 1053.9 kPa	334.3 m/s and 334.32 m/s
320 K, 1550.8 kPa	334.89 m/s and 334.9 m/s
320 K, 2333.1 kPa	335.85 m/s
320 K, 4482.2 kPa	339 m/s
320 K, 5819.9 kPa	341.24 m/s
325.05 K, 48.1 kPa	335.83 m/s
325.05 K, 192.9 kPa	336 m/s and 335.99 m/s
325.05 K, 314.5 kPa	336.13 m/s
325.05 K, 438.6 kPa	336.27 m/s
325.05 K, 592.7 kPa	336.44 m/s
325.05 K, 736 kPa	336.6 m/s
325.05 K, 870.8 kPa	336.76 m/s
325.05 K, 1376.5 kPa	337.36 m/s
325.05 K, 1376.6 kPa	337.37 m/s
325.05 K, 2721.4 kPa	339.14 m/s
349.87 K, 48.9 kPa	348.43 m/s and 348.44 m/s
349.87 K, 182.8 kPa	348.62 m/s
349.87 K, 182.9 kPa	348.61 m/s
349.87 K, 307.3 kPa	348.77 m/s and 348.78 m/s
349.87 K, 447 kPa	348.95 m/s and 348.97 m/s
349.87 K, 594.5 kPa	349.14 m/s
349.87 K, 726.7 kPa	349.32 m/s and 349.34 m/s
349.87 K, 864.5 kPa	349.5 m/s
349.87 K, 864.6 kPa	349.52 m/s
349.87 K, 1397.7 kPa	350.24 m/s and 350.26 m/s
349.87 K, 2711.2 kPa	352.19 m/s
